# Test results published in ChEMBL document CHEMBL5030557, “Tandem Repeat of a Short Human Chemerin-Derived Peptide and Its Nontoxic d-Lysine-Containing Enantiomer Display Broad-Spectrum Antimicrobial and Antitubercular Activities” (J Med Chem, 2021).
# The source made the active and inactive calls. No cut-off for these calls is given here.
# Columns and labels:
# Escherichia coli [1] = assay: Antimicrobial activity against Escherichia coli ATCC 25922 assessed as inhibition of bacterial growth by broth dilution method; assay type: functional
# Bacillus subtilis = assay: Antimicrobial activity against Bacillus subtilis ATCC 6633 assessed as inhibition of bacterial growth by broth dilution method; assay type: functional
# Klebsiella pneumoniae = assay: Antimicrobial activity against Klebsiella pneumoniae ATCC 27736 assessed as inhibition of bacterial growth by broth dilution method; assay type: functional
# Pseudomonas aeruginosa [2] = assay: Antimicrobial activity against Pseudomonas aeruginosa ATCC BAA-427 assessed as inhibition of bacterial growth by broth dilution method; assay type: functional
# [3] = Stability of the compound in human serum assessed as intact compound remaining at 2 mg/ml measured after 60 mins by […] analysis; assay type: ADME, cell-free; conditions: read-out: Stability
# [4] = Acute toxicity in BALB/c mouse assessed as survival at 30 mg/kg administered intravenously measured after 7 days; assay type: organism-based; conditions: in vivo, iv, 168 h, time 7 day
# [5] = Acute toxicity in BALB/c mouse assessed as survival at 20 mg/kg administered intravenously measured after 7 days; assay type: organism-based; conditions: in vivo, iv, 168 h, time 7 day
# [6] = Retention time of the compound analysed by RP-HPLC analysis; assay type: physicochemical
# Staphylococcus aureus [7] = assay: Antimicrobial activity against Staphylococcus aureus ATCC 25923 assessed as inhibition of bacterial growth by broth dilution method; assay type: functional
# Staphylococcus aureus [8] = assay: Antimicrobial activity against methicilin- resistant Staphylococcus aureus ATCC 33591 assessed as inhibition of bacterial growth by broth dilution method; assay type: functional
# Staphylococcus aureus [9] = assay: Antimicrobial activity against multidrug-resistant Staphylococcus aureus ATCC BAA-44 assessed as inhibition of bacterial growth by broth dilution method; assay type: functional
# [10] = Hemolytic activity in human RBC measured after 40 mins; assay type: ADME, tissue-based, Erythrocyte; conditions: red blood cells (RBC)
# Escherichia coli [11] = assay: Antibacterial activity against Escherichia coli ATCC 25922 in presence of 10 percent fresh human serum measured after 1 hr; assay type: functional
# Escherichia coli [12] = assay: Antibacterial activity against Escherichia coli ATCC 25922 in presence of 4.5 mM KCl measured after 1 hr; assay type: functional
# Escherichia coli [13] = assay: Antibacterial activity against Escherichia coli ATCC 25922 in presence of 150 mM NaCl measured after 1 hr; assay type: functional
# Escherichia coli [14] = assay: Antibacterial activity against Escherichia coli ATCC 25922 in presence of temperature ranging from 4 to 90 degC measured after 1 hr; assay type: functional
# Cell membrane [15] = assay: Induction of membrane damage in Escherichia coli assessed as disruption of membrane integrity at 10 uM incubated for 30 min by propidium iodide staining based assay
# [16] = (§1) Disruption of membrane integrity in human RBC cells assessed as membrane damage at 150 uM incubated for 15 min by Alexa fluor-annexin V staining based assay (reference value: 0%); assay type: functional, Red blood cell; conditions: 0.25 h
# Red blood cell = assay: as §1; assay type: functional
# Cell membrane [17] = assay: Disruption of plasma membrane in Staphylococcus aureus ATCC 25923 at 10 uM by SYTOX-green uptake assay; assay type: cell membranes; conditions: TDE = time-dependent effect
# [18] = Permeability of the compound in PC/PG lipid vesicles by spectrofluorometry; assay type: ADME
# Lipid bilayer = assay: Induction of membrane depolarization in mammalian mimetic PC/Chol vesicles assessed as membrane permeabilization
# Pseudomonas aeruginosa [19] = assay: Antibacterial activity against Pseudomonas aeruginosa BAA 427 assessed as resistance development by measuring fold change in MIC after 30 passages with serially diluted peptides; assay type: functional
# Escherichia coli [20] = assay: Bactericidal activity against Escherichia coli ATCC 25922 assessed as bacterial killing at 5 times MIC measured after 60 min; assay type: functional, organism-based
# [21] = test system: Mycolicibacterium smegmatis; assay: Anti-mycobacterial activity against Mycobacterium smegmatis assessed as growth inhibition at 16.13 uM relative to control; assay type: functional
# [22] = test system: Mycobacterium tuberculosis; assay: Anti-mycobacterial activity against Mycobacterium tuberculosis H37Ra assessed as growth inhibition at 16.13 uM relative to control; assay type: functional
# [23] = test system: Mycolicibacterium smegmatis; assay: Anti-mycobacterial activity against Mycobacterium smegmatis infected in human THP-1 cells assessed as reduction in CFU at 24.19 uM after 24 hrs; assay type: functional
# [24] = test system: Mycolicibacterium smegmatis; assay: Anti-mycobacterial activity against Mycobacterium smegmatis infected in human THP-1 cells assessed as reduction in CFU at 40.13 uM after 24 hrs; assay type: functional
smiles,measurement,setting,value
CC(C)C[C@H](NC(=O)[C@H](CCCNC(=N)N)NC(=O)CNC(=O)[C@H](CC(C)C)NC(=O)[C@@H](NC(=O)[C@H](CCCCN)NC(=O)[C@@H](NC(=O)[C@H](CC(C)C)NC(=O)[C@H](CCCNC(=N)N)NC(=O)CNC(=O)[C@H](CC(C)C)NC(=O)[C@@H](NC(=O)[C@@H](N)CCCCN)C(C)C)C(C)C)C(C)C)C(=O)N[C@H](C(N)=O)C(C)C,MIC,Escherichia coli [1],1 µM
same,MIC,Bacillus subtilis,2 µM
same,MIC,Klebsiella pneumoniae,4 µM
same,MIC,Pseudomonas aeruginosa [2],4 µM
same,"remaining at 1 h, 2 mg/ml",[3],51%
same,Activity,[4],Non-Toxic
same,Activity,[5],Non-Toxic
same,Retention_time,[6],16 min
same,MIC,Staphylococcus aureus [7],2 µM
same,MIC,Staphylococcus aureus [8],1 µM
same,MIC,Staphylococcus aureus [9],2 µM
same,HC50 at 40 min,[10],429 µM
same,MIC,Escherichia coli [11],2 µM
same,MIC,Escherichia coli [12],2 µM
same,MIC,Escherichia coli [13],2 µM
same,MIC,Escherichia coli [14],2 µM
same,Activity,Cell membrane [15],Active
same,Activity,[16],96.5%
same,Activity,Red blood cell,Active
same,Activity,Cell membrane [17],Tde
same,Activity,[18],Active
same,Activity,Lipid bilayer,inactive
same,fold change (FC),Pseudomonas aeruginosa [19],8
same,Activity,Escherichia coli [20],Active
same,inhibition at 16.13 µM,[21],80%
same,inhibition at 16.13 µM,[22],80%
same,inhibition at 24.19 µM,[23],20%
same,inhibition at 40.13 µM,[24],40%
CCn1cc(C(=O)O)c(=O)c2cc(F)c(N3CCNCC3)cc21 [NORFLOXACIN],MIC,Klebsiella pneumoniae,0.15 µM
same,MIC,Pseudomonas aeruginosa [2],1.22 µM
same,MIC,Staphylococcus aureus [7],1.22 µM
same,MIC,Staphylococcus aureus [9],2.44 µM
CC[C@H](C)[C@H](NC(=O)CN)C(=O)NCC(=O)N[C@@H](C)C(=O)N[C@H](C(=O)N[C@@H](CC(C)C)C(=O)N[C@@H](CCCCN)C(=O)N[C@H](C(=O)N[C@@H](CC(C)C)C(=O)N[C@H](C(=O)N[C@H](C(=O)NCC(=O)N[C@@H](CC(C)C)C(=O)N1CCC[C@H]1C(=O)N[C@@H](C)C(=O)N[C@@H](CC(C)C)C(=O)N[C@H](C(=O)N[C@@H](CO)C(=O)N[C@@H](Cc1c[nH]c2ccccc12)C(=O)N[C@H](C(=O)N[C@@H](CCCCN)C(=O)N[C@@H](CCCNC(=N)N)C(=O)N[C@@H](CCCCN)C(=O)N[C@@H](CCCNC(=N)N)C(=O)N[C@@H](CCC(N)=O)C(=O)N[C@@H](CCC(N)=O)C(N)=O)[C@@H](C)CC)[C@@H](C)CC)[C@@H](C)O)[C@@H](C)O)C(C)C)C(C)C [MELITTIN],Activity,[16],99.6%
O=C(O)c1cn(C2CC2)c2cc(N3CCNCC3)c(F)cc2c1=O [CIPROFLOXACIN],fold change (FC),Pseudomonas aeruginosa [19],64
CC(C)C[C@H](NC(=O)[C@H](CCCNC(=N)N)NC(=O)CNC(=O)[C@H](CC(C)C)NC(=O)[C@@H](NC(=O)[C@H](CCCCN)NC(=O)[C@@H](NC(=O)[C@H](CC(C)C)NC(=O)[C@H](CCCNC(=N)N)NC(=O)CNC(=O)[C@H](CC(C)C)NC(=O)[C@@H](NC(=O)[C@H](N)CCCCN)C(C)C)C(C)C)C(C)C)C(=O)N[C@H](C(N)=O)C(C)C,MIC,Escherichia coli [1],0.5 µM
same,MIC,Bacillus subtilis,2 µM
same,MIC,Klebsiella pneumoniae,4 µM
same,MIC,Pseudomonas aeruginosa [2],4 µM
same,Retention_time,[6],18.8 min
same,MIC,Staphylococcus aureus [7],2 µM
same,MIC,Staphylococcus aureus [8],1 µM
same,MIC,Staphylococcus aureus [9],2 µM
same,HC50 at 40 min,[10],165 µM
same,MIC,Escherichia coli [11],1 µM
same,MIC,Escherichia coli [12],4 µM
same,MIC,Escherichia coli [13],2 µM
same,MIC,Escherichia coli [14],2 µM
same,Activity,Cell membrane [15],Active
same,Activity,[16],99.1%
